Experimental data from US20150344444A1, “BET-PROTEIN-INHIBITING DIHYDROXYQUINOXALINONES” (BAYER PHARMA AKTIENGESELLSCHAFT, priority 2012, published 2015).

Experiments:
[1] = target: T1, BRD4 Bromo Domain 1 [BRD4(1)] (Homo sapiens, UniProt O60885); assay: BRD4(1)/acetylated peptide H4 binding assay (TR-FRET); conditions: inhibition of interaction between His6-tagged BRD4(1) (amino acids 67-152) and acetylated histone H4 peptide
T1 construct: N-terminally His6-tagged BRD4(1) (amino acids 67-152); made in house; host or cells: E. coli
Description: Protein-Protein Interaction Assay: BRD4/Acetylated Peptide H4 Binding Assay
1. Assay Description for BRD4 Bromo Domain 1 [BRD4(1)]
To assess the BRD4(1) binding strength of the substances described in this application, the ability thereof to inhibit the interaction between BRD4(1) and acetylated histone H4 in a dose-dependent manner was quantified.
For this purpose, a time-resolved fluorescence resonance energy transfer (TR-FRET) assay was used, which measures the binding between N-terminally His6-tagged BRD4(1) (amino acids 67-152) and a synthetic acetylated histone H4 (Ac-H4) peptide with sequence GRGK(Ac)GGK(Ac)GLGK(Ac)GGAK(Ac)RHGSGSK-biotin. The recombinant BRD4(1) protein produced in house according to Filippakopoulos et al., Cell, 2012, 149:214-231 was expressed in E. coli and purified by means of (Ni-NTA) affinity and (Sephadex G-75) size exclusion chromatography. The Ac-H4 peptide can be purchased, for example, from Biosyntan (Berlin, Germany).
In the assay, typically 11 different concentrations of each substance (0.1 nM, 0.33 nM, 1.1 nM, 3.8 nM, 13 nM, 44 nM, 0.15 μM, 0.51 μM, 1.7 μM, 5.9 μM and 20 μM) were analysed as duplicates on the same microtitre plate. For this purpose, 100-fold concentrated solutions in DMSO were prepared by serial dilutions (1:3.4) of a 2 mM stock solution into a clear, 384-well microtitre plate (Greiner Bio-One, Frickenhausen, Germany). From this, 50 nl were transferred into a black test plate (Greiner Bio-One, Frickenhausen, Germany). The test was started by the addition of 2 μl of a 2.5-fold concentrated BRD4(1) solution (final concentration typically 10 nM in the 5 μl of reaction volume) in aqueous assay buffer [50 mM HEPES pH 7.5, 50 mM sodium chloride (NaCl), 0.25 mM CHAPS and 0.05% serum albumin (BSA)] to the substances in the test plate. This was followed by a 10-minute incubation step at 22° C. for the pre-equilibration of putative complexes between BRD4(1) and the substances.
The mixture was then incubated in the dark at 22° C. for one hour and then at 4° C. for at least 3 hours and for no longer than overnight. The formation of BRD4(1)/Ac-H4 complexes was determined by the measurement of the resonance energy transfer from the streptavidin-Eu cryptate to the anti-6His-XL665 antibody present in the reaction. For this purpose, the fluorescence emission was measured at 620 nm and 665 nm after excitation at 330-350 nm in a TR-FRET measuring instrument, for example a Rubystar or Pherastar (both from BMG Lab Technologies, Offenburg, Germany) or a Viewlux (Perkin-Elmer). The ratio of the emissions at 665 nm and at 622 nm was taken as an indicator of the amount of BRD4(1)/Ac-H4 complexes formed.
The data (ratios) obtained were normalized, with 0% inhibition corresponding to the mean from the measurements for a set of controls (typically 32 data points) in which all the reagents were present. In these, in place of test substances, 50 nl of DMSO (100%) were used Inhibition of 100% corresponded to the mean from the measurements for a set of controls (typically 32 data points) in which all the reagents except BRD4(1) were present. The IC50 was determined by regression analysis based on a 4-parameter equation (minimum, maximum, IC50, Hill; Y=max+(min−max)/(1+(X/IC50)Hill).

MOLP-8 cells = assay: MOLP-8 cell proliferation assay (alamarBlue); format: cell-based; conditions: inhibition of cell proliferation, 120 hours, human multiple myeloma cell line
Description: (§1) In accordance with the invention, the ability of the substances to inhibit cell proliferation was determined Cell viability was determined by means of the alamarBlue® reagent (Invitrogen) in a Victor X3 Multilabel Reader (Perkin Elmer). The excitation wavelength was 530 nm and the emission wavelength […].
The MOLP-8 cells (DSMZ, ACC 569) were sown at a concentration of 4000 cells/well in 100 μl of growth medium (RPMI1640, 20% FCS) on 96-well microtitre plates.
(§2) After overnight incubation at 37° C., the fluorescence values were determined (CI values). Then the plates were treated with various substance dilutions (1E-5 M, 3E-6 M, 1E-6 M, 3E-7 M, 1E-7 M, 3E-8 M, 1E-8 M) and incubated at 37° C. over 96 hours (MOLM-13, B16F10 cells) or 120 hours (MOLP-8 cells). Subsequently, the fluorescence values were determined (CO values). For the data analysis, the CI values were subtracted from the CO values and the results were compared between cells which had been treated with various dilutions of the substance or only with buffer solution. The IC50 values (substance concentration needed for 50% inhibition of cell proliferation) were calculated therefrom.
MOLP-8 human multiple myeloma cell line

MOLM-13 cells = assay: MOLM-13 cell proliferation assay (alamarBlue); format: cell-based; conditions: inhibition of cell proliferation, 96 hours, human AML cell line
Description: as §1
The MOLM-13 cells (DSMZ, ACC 554) were sown at a concentration of 4000 cells/well in 100 μl of growth medium (RPMI1640, 10% FCS) on 96-well microtitre plates.
as §2
MOLM-13 human AML (acute myeloid leukaemia) cell line

| Structure (SMILES) | IC50 [1] [nM] | IC50 (MOLP-8 cells) [nM] | IC50 (MOLM-13 cells) [nM] |
| --- | --- | --- | --- |
| C[C@@H]1C(=O)N(C)c2ccc(Nc3ccc(C(=O)NC4CCN(C)CC4)cc3)cc2N1Cc1c(F)cccc1F (stereo in doubt) [Example 39, 4-{[4-(2,6-difluorobenzyl)-1,3-dimethyl-2-oxo-1,2,3,4-tetrahydroquinoxalin-6-yl]amino}-N-(1-methylpiperidin-4-yl)benzamide] | 1040 | 1740 | 2850 |
| C[C@@H]1C(=O)N(C)c2ccc(Nc3ccc(C(=O)NC4CCC(N5CCN(CC6CC6)CC5)CC4)cc3)cc2N1Cc1c(F)cccc1F (stereo in doubt) [Example 40, N-{4-[4-(cyclopropylmethyl)piperazin-1-yl]cyclohexyl}-4-{[4-(2,6-difluorobenzyl)-1,3-dimethyl-2-oxo-1,2,3,4-tetrahydroquinoxalin-6-yl]amino}benzamide] | 1280 | 6620 | > 10000 |
| C[C@@H]1C(=O)N(C)c2ccc(Nc3ccc(C(=O)NC4CCCC4)cc3)cc2N1C1CCCC1 [Example 1, N-cyclopentyl-4-{[(3R)-4-cyclopentyl-1,3-dimethyl-2-oxo-1,2,3,4-tetrahydroquinoxalin-6-yl]amino}benzamide] | 173 | 1470 | 1160 |
| C[C@@H]1C(=O)N(C)c2ccc(Nc3ccc(C(=O)NC4CC4)cc3)cc2N1C1CCCC1 [Example 2, 4-{[(3R)-4-cyclopentyl-1,3-dimethyl-2-oxo-1,2,3,4-tetrahydroquinoxalin-6-yl]amino}-N-cyclopropylbenzamide] | 144 | 727 | 811 |
| C[C@@H]1C(=O)N(C)c2ccc(Nc3ccc(S(=O)(=O)N(C)C)cc3)cc2N1C1CCCC1 [Example 3, 4-{[(3R)-4-cyclopentyl-1,3-dimethyl-2-oxo-1,2,3,4-tetrahydroquinoxalin-6-yl]amino}-N,N-dimethylbenzenesulphonamide] | 63 | 301 | 289 |
| C[C@@H]1C(=O)N(C)c2ccc(Nc3ccc(C(=O)N4CCOCC4)cc3)cc2N1C1CCCC1 [Example 6, (3R)-4-cyclopentyl-1,3-dimethyl-6-{[4-(morpholin-4-ylcarbonyl)phenyl]amino}-3,4-dihydroquinoxalin-2(1H)-one] | 74 | 271 | 698 |
| CC(C)NC(=O)c1ccc(Nc2ccc3c(c2)N(C2CCCC2)[C@H](C)C(=O)N3C)cc1 [Example 7, 4-{[(3R)-4-cyclopentyl-1,3-dimethyl-2-oxo-1,2,3,4-tetrahydroquinoxalin-6-yl]amino}-N-isopropylbenzamide] | 167 | 637 | 1440 |
| C[C@@H]1C(=O)N(C)c2ccc(Nc3ccc(C(=O)N(C)C)cc3)cc2N1C1CCCC1 [Example 8, 4-{[(3R)-4-cyclopentyl-1,3-dimethyl-2-oxo-1,2,3,4-tetrahydroquinoxalin-6-yl]amino}-N,N-dimethylbenzamide] | 98 | 521 | 627 |
| C[C@@H]1C(=O)N(C)c2ccc(Nc3ccc(C(=O)NCC4COC4)cc3)cc2N1Cc1ccccc1 [Example 9, 4-{[(3R)-4-benzyl-1,3-dimethyl-2-oxo-1,2,3,4-tetrahydroquinoxalin-6-yl]amino}-N-(oxetan-3-ylmethyl)benzamide] | 249 | 139 | 366 |
| C[C@@H]1C(=O)N(C)c2ccc(Nc3ccc(C(=O)NC4CC4)cc3)cc2N1Cc1ccccc1 [Example 10, 4-{[(3R)-4-benzyl-1,3-dimethyl-2-oxo-1,2,3,4-tetrahydroquinoxalin-6-yl]amino}-N-cyclopropylbenzamide] | 308 | 260 | 527 |
| C[C@@H]1C(=O)N(C)c2ccc(Nc3ccc(C(=O)NC4CCN(C)CC4)cc3)cc2N1Cc1ccccc1 [Example 11, 4-{[(3R)-4-benzyl-1,3-dimethyl-2-oxo-1,2,3,4-tetrahydroquinoxalin-6-yl]amino}-N-(1-methylpiperidin-4-yl)benzamide] | 239 | 102 | 364 |
| C[C@@H]1C(=O)N(C)c2ccc(Nc3ccc(C(=O)N4CCOCC4)cc3)cc2N1Cc1ccccc1 [Example 12, (3R)-4-benzyl-1,3-dimethyl-6-{[4-(morpholin-4-ylcarbonyl)phenyl]amino}-3,4-dihydroquinoxalin-2(1H)-one] | 156 | 98 | 300 |
| C[C@@H]1C(=O)N(C)c2ccc(Nc3ccc(S(=O)(=O)N4CCOCC4)cc3)cc2N1Cc1ccccc1 [Example 13, (3R)-4-benzyl-1,3-dimethyl-6-{[4-(morpholin-4-ylsulphonyl)phenyl]amino}-3,4-dihydroquinoxalin-2(1H)-one] | 168 | 98 | 223 |
| C[C@@H]1C(=O)N(C)c2ccc(Nc3ccc(S(=O)(=O)N(C)C)cc3)cc2N1Cc1ccccc1 [Example 14, 4-{[(3R)-4-benzyl-1,3-dimethyl-2-oxo-1,2,3,4-tetrahydroquinoxalin-6-yl]amino}-N,N-dimethylbenzenesulphonamide] | 283 | 115 | 233 |
| C[C@@H]1C(=O)N(C)c2ccc(Nc3ccc(S(=O)(=O)N4CCN(C)CC4)cc3)cc2N1Cc1ccccc1 [Example 15, (3R)-4-benzyl-1,3-dimethyl-6-({4-[(4-methylpiperazin-1-yl)sulphonyl]phenyl}amino)-3,4-dihydroquinoxalin-2(1H)-one] | 128 | 109 | 90 |
| C[C@@H]1C(=O)N(C)c2ccc(Nc3ccc(C(=O)N4CC5(CCS5(=O)=O)C4)cc3)cc2N1Cc1ccccc1 [Example 16, (3R)-4-benzyl-6-({4-[(1,1-dioxido-1-thia-6-azaspiro[3.3]hept-6-yl)carbonyl]phenyl}amino)-1,3-dimethyl-3,4-dihydroquinoxalin-2(1H)-one] | 257 | 96 | 374 |
| COc1ccc(CN2c3cc(Nc4ccc(C(=O)NC5CCN(C)CC5)cc4)ccc3N(C)C(=O)[C@H]2C)cc1 [Example 17, 4-{[(3R)-4-(4-methoxybenzyl)-1,3-dimethyl-2-oxo-1,2,3,4-tetrahydroquinoxalin-6-yl]amino}-N-(1-methylpiperidin-4-yl)benzamide] | 114 | 69 | 315 |
| COc1ccc(CN2c3cc(Nc4ccc(C(=O)N5CCOCC5)cc4)ccc3N(C)C(=O)[C@H]2C)cc1 [Example 18, (3R)-4-(4-methoxybenzyl)-1,3-dimethyl-6-{[4-(morpholin-4-ylcarbonyl)phenyl]amino}-3,4-dihydroquinoxalin-2(1H)-one] | 190 | 148 | 257 |
